For one test, the target named is T1, Heme-containing sGC (Rattus norvegicus, UniProt P20595).
T1 construct: made in house; host or cells: baculovirus/Sf9 insect cells
T1 sequence (P20595 1-619): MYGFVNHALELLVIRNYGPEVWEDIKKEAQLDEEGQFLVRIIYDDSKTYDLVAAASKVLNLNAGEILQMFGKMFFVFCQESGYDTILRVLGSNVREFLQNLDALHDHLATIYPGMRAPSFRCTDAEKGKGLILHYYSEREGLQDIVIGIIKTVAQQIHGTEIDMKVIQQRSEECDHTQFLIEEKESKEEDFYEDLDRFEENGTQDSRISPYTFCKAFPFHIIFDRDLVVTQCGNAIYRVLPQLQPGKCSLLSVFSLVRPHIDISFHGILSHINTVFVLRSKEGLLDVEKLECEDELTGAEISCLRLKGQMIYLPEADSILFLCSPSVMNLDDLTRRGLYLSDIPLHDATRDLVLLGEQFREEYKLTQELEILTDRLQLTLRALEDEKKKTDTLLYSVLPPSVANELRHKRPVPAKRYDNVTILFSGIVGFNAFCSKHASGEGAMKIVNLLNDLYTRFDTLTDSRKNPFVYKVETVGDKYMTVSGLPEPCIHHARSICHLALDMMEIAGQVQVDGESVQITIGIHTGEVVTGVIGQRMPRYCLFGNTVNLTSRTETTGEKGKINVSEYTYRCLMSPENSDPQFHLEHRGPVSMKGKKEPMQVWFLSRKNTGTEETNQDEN
T1 sequence (P19686 1-690 partner): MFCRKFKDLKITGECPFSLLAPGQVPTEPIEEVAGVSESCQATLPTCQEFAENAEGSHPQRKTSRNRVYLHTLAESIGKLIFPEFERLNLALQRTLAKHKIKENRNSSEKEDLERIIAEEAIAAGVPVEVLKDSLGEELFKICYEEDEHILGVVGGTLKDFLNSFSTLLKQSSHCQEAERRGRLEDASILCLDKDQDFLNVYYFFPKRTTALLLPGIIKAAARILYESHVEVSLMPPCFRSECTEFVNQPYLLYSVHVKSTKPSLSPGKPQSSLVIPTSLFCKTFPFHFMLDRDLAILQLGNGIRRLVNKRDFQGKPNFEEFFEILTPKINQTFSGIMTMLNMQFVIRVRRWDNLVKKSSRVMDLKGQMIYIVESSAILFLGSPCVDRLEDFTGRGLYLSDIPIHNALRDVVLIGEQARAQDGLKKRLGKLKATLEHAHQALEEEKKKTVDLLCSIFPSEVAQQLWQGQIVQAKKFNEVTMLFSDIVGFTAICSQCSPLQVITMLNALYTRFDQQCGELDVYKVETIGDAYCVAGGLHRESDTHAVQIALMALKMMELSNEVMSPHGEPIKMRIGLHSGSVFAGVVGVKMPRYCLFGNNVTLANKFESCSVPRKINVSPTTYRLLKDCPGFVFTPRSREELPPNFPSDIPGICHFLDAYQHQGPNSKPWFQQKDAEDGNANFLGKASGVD
Nature of the test: Stimulation of recombinant soluble guanylate cyclase in vitro, heme-containing enzyme. The class given is biochemical. The source says: Hoenicka, E. M. Becker, H. Apeler, T. Sirichoke, H. Schroeder, R. Gerzer and J.-P. Stasch, “Purified soluble guanylyl cyclase expressed in a baculovirus/Sf9 system: Stimulation by YC-1, nitric oxide, and carbon oxide”, J. Mol. Med. 77 (1999), 14-23. The heme-free guanylate cyclase is obtained by adding Tween 20 to the sample buffer (0.5% in the final concentration).
The activation of sGC by a test substance is reported as n-fold stimulation of the basal activity.

For the next test, the system named is saphenous artery. Kind of test: Vasorelaxant effect in vitro (phenylephrine-contracted artery rings). The note with it: Oryctolagus cuniculus; concentration reducing phenylephrine-induced contraction of rabbit saphenous artery rings by 50%. Also on record: species or system Rabbits. As to the method: Rabbits are anesthetized and sacrificed by intravenous injection of thiopental sodium (about 50 mg/kg) and exsanguinated. The saphenous artery is removed and divided into rings 3 mm wide. The rings are mounted singly on in each case a pair of triangular hooks open at the end and made of 0.3 mm-thick special wire (Remanium®). Each ring is placed under an initial tension in 5 ml organ baths with Krebs-Henseleit solution which is at 37° C., is gassed with carbogen and has the following composition: NaCl 119 mM; KCl 4.8 mM; CaCl2×2 H2O 1 mM; MgSO4×7 H2O 1.4 mM; KH2PO4 1.2 mM; NaHCO3 25 mM; glucose 10 mM; bovine serum albumin 0.001%. The force of contraction is detected with Statham UC2 cells, amplified and digitized via A/D converters (DAS-1802 HC, Keithley Instruments, Munich) and recorded in parallel on chart recorders. Contractions are induced by addition of phenylephrine.
After several (generally 4) control cycles, the substance to be investigated is added in each further run in increasing dosage, and the level of the contraction achieved under the influence of the test substance is compared with the level of the contraction reached in the last preceding run. The concentration necessary to reduce the contraction reached in the preceding control by 50% is calculated from this (IC50). The standard application volume is 5 μl. The proportion of DMSO in the bath solution corresponds to 0.1%.

Each structure is given as a SMILES string.

For the compound `O=C(NCCCCC1(C(=O)O)CC1)C(c1ccc(CN2N=C(c3ccccc3)OCC2=O)cc1)C1CCCC1` (single isomer, unassigned; (+)) [Example 1, (+)-1-(4-{[2-cyclopentyl-2-{4-[(5-oxo-2-phenyl-5,6-dihydro-4H-1,3,4-oxadiazin-4-yl)methyl]phenyl}-acetyl]amino}butyl)cyclopropanecarboxylic acid], the “Stimulation (n-fold) of heme-containing sGC, Basal” value was determined as 1.5 n-fold on Heme-containing sGC (0.1 μM Example 1), 1.4 n-fold on Heme-containing sGC (1 μM Example 1), 2.6 n-fold on Heme-containing sGC (10 μM Example 1) and 14.0 n-fold on Heme-containing sGC (100 μM Example 1). Moreover, the “Stimulation (n-fold) of heme-containing sGC, +0.1 μM DEA/NO” value was 21.9 n-fold on Heme-containing sGC (0.1 μM Example 1 + 0.1 μM DEA/NO), 19.3 n-fold on Heme-containing sGC (1 μM Example 1 + 0.1 μM DEA/NO), 20.0 n-fold on Heme-containing sGC (10 μM Example 1 + 0.1 μM DEA/NO) and 37.8 n-fold on Heme-containing sGC (100 μM Example 1 + 0.1 μM DEA/NO). The “Stimulation (n-fold) of heme-containing sGC, +10 μM ODQ” value at Heme-containing sGC (0.1 μM Example 1 + 10 μM ODQ) stood at 3.0 n-fold; at Heme-containing sGC (1 μM Example 1 + 10 μM ODQ), 3.7 n-fold; at Heme-containing sGC (10 μM Example 1 + 10 μM ODQ), 10.3 n-fold; at Heme-containing sGC (100 μM Example 1 + 10 μM ODQ) it was 46.6 n-fold. Besides, at Heme-containing sGC (combination with DEA/NO, heme-containing sGC), the “Effect of combination with the NO donor DEA/NO on sGC stimulation” value is reported as “no synergistic effect”. For the same compound, at Heme-containing sGC (with ODQ, heme-containing sGC, effect is in fact increased), the “Effect of the heme-dependent sGC inhibitor ODQ on sGC activation” value is listed as “not blocked”. In addition, in the test on saphenous artery, the midpoint of inhibition, the IC50, lay at 284 nM.

Usually IC50 stands for the concentration that gives 50% inhibition. A high value points to a need for much substance.
